Assay results published in the supplement of paper PMC10307832.

Key:
Assay in all cases: relative viability (nuclei count vs DMSO), 5 days (fraction); higher = more cells survive
[1] = compound: CC1=C(C=CC(=C1)[N+](=O)[O-])NS(=O)(=O)C2=C(C=CC(=C2)Cl)Cl [FH535] + CC(=O)Nc1cccc(-n2c(=O)n(C3CC3)c(=O)c3c(Nc4ccc(I)cc4F)n(C)c(=O)c(C)c32)c1 [Trametinib] (partner 0.02 µM)
Method in brief: (§1)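 The day after seeding in 1536-well plates, lung cancer cell lines were treated by pin tool with a single drug, or with a fixed anchor-drug dose together with five library-drug doses (not always all listed) in √10 steps. After 5 days, a combined fix-and-stain solution (final 0.05% Triton X-100, 1% formaldehyde, 1 ug/ml Hoechst) was added. Nuclei counted on 4× images gave relative viability as treated counts over vehicle counts, reported as the median of duplicate plates.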

[2] = compound: CC1=C(C=CC(=C1)[N+](=O)[O-])NS(=O)(=O)C2=C(C=CC(=C2)Cl)Cl [FH535] + CS(=O)(=O)N1CCN(Cc2cc3nc(-c4cccc5[nH]ncc45)nc(N4CCOCC4)c3s2)CC1 [Pictilisib] (partner 1 µM)
Method in brief: as §1

[3] = compound: CC1=C(C=CC(=C1)[N+](=O)[O-])NS(=O)(=O)C2=C(C=CC(=C2)Cl)Cl [FH535] + C[C@@H](Oc1cc(-c2cnn(C3CCNCC3)c2)cnc1N)c1c(Cl)ccc(F)c1Cl [Crizotinib] (partner 1 µM)
Method in brief: as §1

[4] = compound: CC1=C(C=CC(=C1)[N+](=O)[O-])NS(=O)(=O)C2=C(C=CC(=C2)Cl)Cl [FH535] + O=C(c1cc(Cc2n[nH]c(=O)c3ccccc23)ccc1F)N1CCN(C(=O)C2CC2)CC1 [Olaparib] (partner 8 µM)
Method in brief: as §1

[5] = compound: CC1=C(C=CC(=C1)[N+](=O)[O-])NS(=O)(=O)C2=C(C=CC(=C2)Cl)Cl [FH535] + NC(=O)Nc1cc(-c2cccc(F)c2)sc1C(=O)N[C@H]1CCCNC1 [AZD7762] (partner 0.2 µM)
Method in brief: as §1

Row | Cell Line | relative viability ([1]; first compound 0.04 µM) | relative viability ([1]; first compound 0.1265 µM) | relative viability ([1]; first compound 0.4 µM) | relative viability ([1]; first compound 1.265 µM) | relative viability ([2]; first compound 0.04 µM) | relative viability ([2]; first compound 0.1265 µM) | relative viability ([2]; first compound 0.4 µM) | relative viability ([2]; first compound 1.265 µM) | relative viability ([3]; first compound 0.04 µM) | relative viability ([3]; first compound 0.1265 µM) | relative viability ([3]; first compound 0.4 µM) | relative viability ([3]; first compound 1.265 µM) | relative viability ([4]; first compound 0.04 µM) | relative viability ([4]; first compound 0.1265 µM) | relative viability ([4]; first compound 0.4 µM) | relative viability ([4]; first compound 1.265 µM) | relative viability ([5]; first compound 0.04 µM) | relative viability ([5]; first compound 0.1265 µM) | relative viability ([5]; first compound 0.4 µM) | relative viability ([5]; first compound 1.265 µM)
1 | NCI-H1650 | 0.476 | 0.714 | 0.459 | 0.584 | 0.503 | 0.56 | 0.545 | 0.594 | 1.01 | 1.09 | 1.15 | 0.839 | 0.841 | 0.741 | 0.698 | 0.641 | – | – | – | –
2 | NCI-H1395 | 0.936 | 1.02 | 1.06 | 0.874 | 0.583 | 0.645 | 0.64 | 0.541 | – | – | – | – | 0.491 | 0.46 | 0.437 | 0.414 | 0.381 | 0.426 | 0.368 | 0.393
3 | NCI-H1793 | 0.4 | 0.421 | 0.425 | 0.399 | 0.344 | 0.401 | 0.313 | 0.301 | – | – | – | – | 0.801 | 0.94 | 0.826 | 0.454 | 0.43 | 0.631 | 0.418 | 0.483
4 | NCI-H2342 | 0.794 | 0.823 | 0.9 | 0.842 | – | – | – | – | – | – | – | – | 0.471 | 0.487 | 0.434 | 0.363 | 0.491 | 0.482 | 0.482 | 0.354
5 | SW 1573 | 0.686 | 0.528 | 0.651 | 0.376 | 0.485 | 0.612 | 0.471 | 0.465 | 0.64 | 0.751 | 0.865 | 0.683 | 0.399 | 0.497 | 0.473 | 0.34 | – | – | – | –
6 | UMC-11 | 0.663 | 0.525 | 0.576 | 0.684 | 0.749 | 0.619 | 0.726 | 0.787 | 0.639 | 0.583 | 0.582 | 0.626 | 0.288 | 0.335 | 0.367 | 0.343 | – | – | – | –
7 | NCI-H522 | 0.731 | 0.968 | 0.804 | 0.622 | – | – | – | – | – | – | – | – | 0.686 | 0.717 | 0.632 | 0.467 | 0.717 | 0.947 | 0.688 | 0.864
8 | NCI-H661 | 0.526 | 0.686 | 0.553 | 0.365 | 0.473 | 0.381 | 0.392 | 0.536 | 1.08 | 0.955 | 0.931 | 0.797 | 0.729 | 0.743 | 0.66 | 0.515 | – | – | – | –
9 | NCI-H2228 | 0.376 | 0.368 | 0.464 | 0.413 | 0.327 | 0.416 | 0.369 | 0.305 | 0.523 | 0.606 | 0.486 | 0.388 | 0.783 | 0.886 | 0.709 | 0.698 | – | – | – | –
10 | COR-L23 | 0.52 | 0.604 | 0.515 | 0.371 | 0.734 | 0.816 | 0.624 | 0.531 | 0.626 | 0.656 | 0.57 | 0.434 | 0.375 | 0.35 | 0.309 | 0.244 | – | – | – | –
